The values below come from patent publication US11559497B2 (Guangzhou Dazhou Biomedicine Ltd., priority 2020, dated 2023).

Data set [1] in a line: Phase 1 clinical study: plasma pharmacokinetics after ketamine transdermal patch. The conditions noted are these: for plasma concentration: 28 mg dose; for AUC: AUCall; for AUC(0-inf): AUCinf. Here is the method: Enrollment was planned to achieve participation of up to 14 adult subjects with MDD in the 3 stages of the protocol. Subjects were to be screened within 4 weeks of enrollment. Eligible subjects who provided written consent were to be enrolled into Stage 1 of the study. In Stage 1 of the study, subjects were to receive the low-dose transdermal patch. The amount of residual drug was to be measured and PK analysis conducted for each subject to inform the subsequent dosing. In Stage 2, after a 2 to 4 week washout period, a placebo patch was to be administered. A “deception” protocol was used in order to ensure the subjects remained blinded to the treatment. Placebo administration was followed by a 1 week washout period, after which subjects were to receive the high-dose transdermal patch in Stage 3. The overall study duration from screening until the end of Stage 3 was approximately 60 days, including both inpatient and outpatient portions of the study. The general study design is illustrated in FIG. 3.
The patch was predicted to deliver systemically approximately 20 mg.
For Stage 1, blood samples were collected pre-patch application, and at 2, 6, 12, 24, 28, 32, 48, 96, and 168 hours post-patch application.
Blood samples were collected in tubes containing sodium heparin and stored on ice or room temperature until centrifuged under refrigeration or room temperature for at least 10 minutes at 3,000 revolutions per minute. After centrifugation, plasma was removed, divided into 2 aliquots of approximately 0.6 mL each, frozen, and stored at or below −20° C. Blood was processed to plasma and frozen within 1 hour of collection. Processed frozen plasma samples were transferred on dry ice to the analytical laboratory and were stored at or below −20° C. until bioanalysis was performed.
A non-compartmental analysis (NCA) was used to calculate PK parameters using Phoenix® WinNonlin® 6.4 or later (Certara, USA).

Data set [2] can be described thus: Reported human pharmacokinetics of ketamine by IV infusion, oral or intranasal route. The conditions noted are these: 40-min IV infusion of 35 mg of ketamine. From the text:
There has been very limited data on monitoring HNK pharmacokinetics in humans in a robust approach. […] Also HNK was shown preclinically to have lower potential of AEs.

Data set [3] is described as follows: Prediction of delivered dose and human PK from in vitro permeability and PK linearity. The conditions noted are these: predicted.
In the next data set the test system is NMDA receptor. The conditions noted are these: in vitro; Shimoyama et al., 1999; cited from earlier work.

The Cmax is the maximum level reached in the sampled fluid or tissue. Broadly, the Tmax is the time from dosing to the highest level. By AUC is commonly meant the area under the concentration-time curve, a measure of exposure. A high value points to more exposure. By AUC(0-inf) is commonly meant total exposure, with the tail of the curve extrapolated. As a reminder, the half-life is how long it takes for the measured level to halve. Read a low half-life as fast loss.

The structures appear in SMILES notation.

With `NC1(c2ccccc2Cl)CCCC(O)C1=O` (stereo not drawn) [Hydroxynorketamine, hydroxynorketamine], the plasma concentration entry in data set [1] (48 hours post application of tested ketamine patch) is “about 10 ng/ml”; in data set [1] (72 hours post application of tested ketamine patch), “about 6 ng/ml”. Further, the AUCall was 438 ng·h/mL in data set [1] (Stage 1 (60 cm^2 patch, 24 h, low-dose), Mean); 364 ng·h/mL in data set [1] (Stage 1 (60 cm^2 patch, 24 h, low-dose), Median); 549 ng·h/mL in data set [1] (Stage 3 (20 and 60 cm^2 patches, high-dose), Mean); 488 ng·h/mL in data set [1] (Stage 3 (20 and 60 cm^2 patches, high-dose), Median). The AUCinf stood at 666 ng·h/mL in data set [1] (Stage 1, Mean); 573 ng·h/mL in data set [1] (Stage 1, Median); 839 ng·h/mL in data set [1] (Stage 3, Mean); 660 ng·h/mL in data set [1] (Stage 3, Median). The Cmax in data set [1] (Stage 1, Mean) is 12.3 ng/mL; in data set [1] (Stage 1, Median), 12.6 ng/mL; in data set [1] (Stage 3, Mean), 15.7 ng/mL; in data set [1] (Stage 3, Median), 12.8 ng/mL. For the same compound, the Extrap was found to be 10% in data set [1] (Stage 1, Mean); 6% in data set [1] (Stage 1, Median); 15% in data set [1] (Stage 3, Mean); 10% in data set [1] (Stage 3, Median). For the same compound, the T1/2 in data set [1] (Stage 1, Mean) came out at 19.3 h; in data set [1] (Stage 1, Median), 17.9 h; in data set [1] (Stage 3, Mean), 20.2 h; in data set [1] (Stage 3, Median) it was 19.5 h. Besides, the time of peak concentration (Tmax) was 33.0 h in data set [1] (Stage 1, Mean); 32.0 h in data set [1] (Stage 1, Median); 33.5 h in data set [1] (Stage 3, Mean); 29.9 h in data set [1] (Stage 3, Median). The “ratio of AUC of HNK/Ketamine” value in data set [1] (tested ketamine patch) is given as 2.23; in data set [2] (MDD patients, digitized from Zarate et al.), 0.522. The “ratio of Cmax of HNK/ketamine” value in data set [1] (tested ketamine patch) is on record as 1.19; in data set [2] (digitized from Zarate et al.), “about 0.113”. For the same compound, the “Cmax resulting from about 100 mg dose by ketamine transdermal delivery device” value in data set [3] is “around 30 ng/mL”.
On to `NC1(c2ccccc2Cl)CCCCC1=O` (stereo not drawn) [Norketamine, norketamine], for which the Extrap in data set [1] (Stage 1, Mean) was 12%; in data set [1] (Stage 1, Median), 11%; in data set [1] (Stage 3, Mean), 7%; in data set [1] (Stage 3, Median), 7%. In addition, the AUC in data set [1] (human, plasma, other: transdermal patch, 20 mg, Stage 1 (60 cm^2 patch, 24 h, low-dose), Mean) came out at 377 ng·h/mL; in data set [1] (human, plasma, other: transdermal patch, 20 mg, Stage 1 (60 cm^2 patch, 24 h, low-dose), Median), 328 ng·h/mL; in data set [1] (human, plasma, other: transdermal patch, 40 mg, Stage 3 (20 and 60 cm^2 patches, high-dose), Mean), 486 ng·h/mL; in data set [1] (human, plasma, other: transdermal patch, 40 mg, Stage 3 (20 and 60 cm^2 patches, high-dose), Median), 387 ng·h/mL. Besides, the AUC(0-inf) in data set [1] (human, plasma, other: transdermal patch, 20 mg, Stage 1, Mean) was found to be 420 ng·h/mL; in data set [1] (human, plasma, other: transdermal patch, 20 mg, Stage 1, Median), 367 ng·h/mL; in data set [1] (human, plasma, other: transdermal patch, 40 mg, Stage 3, Mean), 624 ng·h/mL; in data set [1] (human, plasma, other: transdermal patch, 40 mg, Stage 3, Median), 500 ng·h/mL. The peak concentration (Cmax) turned out to be 11.1 ng/mL in data set [1] (human, plasma, other: transdermal patch, 20 mg, Cmax, Stage 1, Mean); 9.85 ng/mL in data set [1] (human, plasma, other: transdermal patch, 20 mg, Cmax, Stage 1, Median); 13.4 ng/mL in data set [1] (human, plasma, other: transdermal patch, 40 mg, Cmax, Stage 3, Mean); 10.3 ng/mL in data set [1] (human, plasma, other: transdermal patch, 40 mg, Cmax, Stage 3, Median). Further, the half-life was 19.4 h in data set [1] (human, plasma, other: transdermal patch, 20 mg, T1/2, Stage 1, Mean); 21 h in data set [1] (human, plasma, other: transdermal patch, 20 mg, T1/2, Stage 1, Median); 17.9 h in data set [1] (human, plasma, other: transdermal patch, 40 mg, T1/2, Stage 3, Mean); 19.2 h in data set [1] (human, plasma, other: transdermal patch, 40 mg, T1/2, Stage 3, Median). The Tmax worked out at 28.4 h in data set [1] (human, plasma, other: transdermal patch, 20 mg, Tmax, Stage 1, Mean); 28 h in data set [1] (human, plasma, other: transdermal patch, 20 mg, Tmax, Stage 1, Median); 31.1 h in data set [1] (human, plasma, other: transdermal patch, 40 mg, Tmax, Stage 3, Mean); 28 h in data set [1] (human, plasma, other: transdermal patch, 40 mg, Tmax, Stage 3, Median). In addition, the “ratio of AUC of NK/Ketamine” value is 1.40 in data set [1] (tested ketamine patch) and 0.989 in data set [2] (digitized literature data). The “ratio of Cmax of NK/ketamine” value in data set [1] (tested ketamine patch) is recorded as 1.08; in data set [2] (digitized literature data) it was “about 0.362”.
Turning to `CN[C@]1(c2ccccc2Cl)CCCCC1=O` [S-ketamine], the “greater affinity than R-ketamine for NMDA receptor binding” value in the data set on NMDA receptor is given as ~4 fold.
